# Assay results: patent publication US10301278B2, “1-(triazin-3-yl/pyridazin-3-yl)-piper(-azine)idine derivatives and compositions therefor for inhibiting the activity of SHP2” (NOVARTIS AG, priority 2014, dated 2019)
# Target: SHP2 (Homo sapiens (Human), UniProt Q06124)
# Assay: SHP2 allosteric inhibition assay (DiFMUP prompt fluorescence)
# Format: biochemical
# Conditions: not given
# Procedure: SHP2 is allosterically activated through binding of bis-tyrosyl-phorphorylated peptides to its Src Homology 2 (SH2) domains. The latter activation step leads to the release of the auto-inhibitory interface of SHP2, which in turn renders the SHP2 protein tyrosine phosphatase (PTP) active and available for substrate recognition and reaction catalysis. The catalytic activity of SHP2 was monitored using the surrogate substrate DiFMUP in a prompt fluorescence assay format.
# After 30-60 minutes incubation at 25° C., the surrogate substrate DiFMUP (Invitrogen, cat#D6567) was added to the reaction and incubated at 25° C. for 30 minutes. […] The fluorescence signal was monitored using a microplate reader (Envision, Perki-Elmer) using excitation and emission wavelengths of 340 nm and 450 nm, respectively. The inhibitor dose response curves were analyzed using normalized IC50 regression curve fitting with control based normalization.
# Sequence of SHP2 (Q06124 whole entry): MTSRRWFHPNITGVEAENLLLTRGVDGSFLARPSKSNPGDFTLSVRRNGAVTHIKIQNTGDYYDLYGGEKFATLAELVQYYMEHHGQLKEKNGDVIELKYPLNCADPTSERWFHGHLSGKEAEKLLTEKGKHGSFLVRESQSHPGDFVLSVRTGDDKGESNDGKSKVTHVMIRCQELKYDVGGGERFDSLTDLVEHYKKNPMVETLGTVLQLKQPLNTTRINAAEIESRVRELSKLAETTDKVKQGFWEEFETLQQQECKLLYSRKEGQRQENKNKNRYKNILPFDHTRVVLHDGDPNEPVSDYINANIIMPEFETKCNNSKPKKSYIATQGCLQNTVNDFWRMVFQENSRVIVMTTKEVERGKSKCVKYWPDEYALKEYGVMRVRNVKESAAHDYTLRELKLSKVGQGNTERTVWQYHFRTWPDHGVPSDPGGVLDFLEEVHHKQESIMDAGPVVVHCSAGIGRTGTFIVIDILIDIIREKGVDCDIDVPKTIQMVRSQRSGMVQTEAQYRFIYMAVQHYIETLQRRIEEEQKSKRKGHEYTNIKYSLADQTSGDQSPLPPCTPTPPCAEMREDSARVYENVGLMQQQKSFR
row,SMILES,IC50
1,"CC1(N)CCN(c2cnc(Sc3cccc(Cl)c3Cl)c(N)n2)CC1 [Example 1, 6-(4-amino-4-methylpiperidin-1-yl)-3-((2,3-dichlorophenyl)thio)pyrazin-2-amine]",0.029 µM

# Same assay, conditions: 0.5 nM SHP2 activated with 0.5 μM peptide IRS1_pY1172(dPEG8)pY1222; substrate DiFMUP; 25° C.; read-out: IC50
row,SMILES,IC50
1,CC1(N)CCN(c2cnc(Sc3ccccc3Cl)c(N)n2)CC1 [Example 2],0.07 µM
2,"CC1(N)CCN(c2cnc(Sc3ccccc3C(F)(F)F)c(N)n2)CC1 [Example 4, 6-(4-amino-4-methylpiperidin-1-yl)-3-((2-(trifluoromethyl)phenyl)thio)pyrazin-2-amine]",0.059 µM
3,CC1(N)CCN(c2cnc(Sc3cc(Cl)ccc3Cl)c(N)n2)CC1 [Example 5],1.08 µM
4,CC1(N)CCN(c2cnc(Sc3ccc(Cl)cc3Cl)c(N)n2)CC1 [Example 6],0.21 µM
5,COc1ccc(Cl)c(Sc2ncc(N3CCC(C)(N)CC3)nc2N)c1 [Example 7],13.7 µM
6,CC1(N)CCN(c2cnc(Oc3cccc(Cl)c3Cl)c(N)n2)CC1 [Example 8],64.4 µM
7,"CC1(N)CCN(c2cnc(Sc3cc(O)ccc3Cl)c(N)n2)CC1 [Example 9, 3-((3-amino-5-(4-amino-4-methylpiperidin-1-yl)pyrazin-2-yl)thio)-4-chlorophenol]",0.307 µM
8,"COc1cccc(Sc2ncc(N3CCC(C)(N)CC3)nc2N)c1Cl [Example 10, 6-(4-amino-4-methylpiperidin-1-yl)-3-((2-chloro-3-methoxyphenyl)thio)pyrazin-2-amine]",0.056 µM
9,CC1(N)CCN(c2cnc(Sc3cccc(NC(=O)c4ccc5ccccc5c4)c3Cl)c(N)n2)CC1 [Example 13],0.257 µM
10,"CC1(N)CCN(c2nnc(Sc3cccc(Cl)c3Cl)c(N)n2)CC1 [Example 14, 3-(4-amino-4-methylpiperidin-1-yl)-6-((2,3-dichlorophenyl)thio)-1,2,4-triazin-5-amine]",0.143 µM
11,CC1(N)CCN(c2nnc(Sc3ccccc3Cl)c(N)n2)CC1 [Example 15],0.266 µM
12,CC1(CN)CCN(c2cnc(Sc3cccc(N)c3Cl)c(N)n2)CC1 [Example 20],0.022 µM
13,CC1(N)CCN(c2cnc(Sc3cccc(N)c3C(F)(F)F)c(N)n2)CC1 [Example 21],0.046 µM
14,CC1(N)CCN(c2cnc(Sc3ccc(Br)cc3Cl)c(N)n2)CC1 [Example 22],0.044 µM
15,CC1(N)CCN(c2cnc(Sc3ccc(F)cc3Cl)c(N)n2)CC1 [Example 23],0.051 µM
16,C[C@@]1(N)CCN(c2cnc(Sc3cccc(Cl)c3Cl)c(N)n2)C[C@H]1O [Example 24],0.049 µM
17,CC1(N)CCN(c2cnc(Sc3ccc(F)cc3C(F)(F)F)c(N)n2)CC1 [Example 26],0.067 µM
18,"NCC1(c2cccnc2)CCN(c2cnc(Sc3cccc(Cl)c3Cl)c(N)n2)CC1 [Example 28, 6-(4-(aminomethyl)-4-(pyridin-3-yl)piperidin-1-yl)-3-((2,3-dichlorophenyl)thio)pyrazin-2-amine]",0.054 µM
19,CC1(N)CCN(c2cnc(Sc3cccnc3C(F)(F)F)c(N)n2)CC1 [Example 30],0.066 µM
20,Nc1cccc(Sc2ncc(N3CCC(N)(CO)CC3)nc2N)c1Cl [Example 32],0.195 µM
21,"CC1(CN)CCN(c2nc(N)c(Sc3cccc(Cl)c3Cl)nc2C(N)=O)CC1 [Example 33, 5-amino-3-(4-(aminomethyl)-4-methylpiperidin-1-yl)-6-((2,3-dichlorophenyl)thio)pyrazine-2-carboxamide]",0.019 µM

row,SMILES,IC50
1,CC1(CN)CCN(c2nc(N)c(Sc3cccnc3C(F)(F)F)nc2C(N)=O)CC1 [Example 35],0.109 µM
2,"CC1(N)CCN(c2cnc(Sc3ccncc3Cl)c(N)n2)CC1 [Example 36, 6-(4-amino-4-methylpiperidin-1-yl)-3-((3-chloropyridin-4-yl)thio)pyrazin-2-amine]",0.076 µM
3,CC1(N)CCN(c2cnc(Sc3ccnc(C(F)(F)F)c3Cl)c(N)n2)CC1 [Example 37],0.082 µM
4,"CC1(N)CCN(c2cnc(Sc3ccc(-c4nn[nH]n4)cc3Cl)c(N)n2)CC1 [Example 38, 6-(4-amino-4-methylpiperidin-1-yl)-3-((2-chloro-4-(2H-tetrazol-5-yl)phenyl)thio)pyrazin-2-amine]",0.023 µM
5,"CC1(CN)CCN(c2cnc(Sc3cccnc3Cl)c(N)n2)CC1 [Example 39, 6-(4-(aminomethyl)-4-methylpiperidin-1-yl)-3-((2-chloropyridin-3-yl)thio)pyrazin-2-amine]",0.026 µM
6,"NCC1(c2cscn2)CCN(c2cnc(Sc3cccnc3C(F)(F)F)c(N)n2)CC1 [Example 40, 6-(4-(aminomethyl)-4-(thiazol-4-yl)piperidin-1-yl)-3-((2-(trifluoromethyl)pyridin-3-yl)thio)pyrazin-2-amine]",0.079 µM
7,"CC1(CN)CCN(c2cnc(Sc3ccnc(N)c3Cl)c(N)n2)CC1 [Example 42, 3-((2-amino-3-chloropyridin-4-yl)thio)-6-(4-(aminomethyl)-4-methylpiperidin-1-yl)pyrazin-2-amine]",0.023 µM
8,"CC1(CN)CCN(c2cnc(Sc3ccnc(Cl)c3Cl)c(N)n2)CC1 [Example 43, 6-(4-(aminomethyl)-4-methylpiperidin-1-yl)-3-((2,3-dichloropyridin-4-yl)thio)pyrazin-2-amine]",0.014 µM
9,"NCC1(F)CCN(c2cnc(Sc3cccc(N)c3Cl)c(N)n2)CC1 [Example 44, 3-((3-amino-2-chlorophenyl)thio)-6-(4-(aminomethyl)-4-fluoropiperidin-1-yl)pyrazin-2-amine]",0.271 µM
10,CC1(CN)CCN(c2cnc(Sc3cccnc3C(F)(F)F)c(N)c2)CC1 [Example 45],0.351 µM
11,NCC1CCCN(c2cnc(Sc3cccnc3C(F)(F)F)c(N)n2)C1 (stereo not drawn) [Example 46],0.459 µM
12,NCC1(O)CCN(c2cnc(Sc3cccc(N)c3Cl)c(N)n2)CC1 [Example 47],0.382 µM
13,CC1(CN)CCN(c2cnc(Sc3ccncc3F)c(N)n2)CC1 [Example 48],0.177 µM
14,CC1(CN)CCN(c2cnc(Sc3ccnc(Cl)c3Cl)c(N)n2)CC1 [Example 49],0.1 µM
15,CCC1(CN)CCN(c2cnc(Sc3ccnc(N)c3Cl)c(N)n2)CC1 [Example 50],0.059 µM
16,CCCC1(CN)CCN(c2cnc(Sc3ccnc(N)c3Cl)c(N)n2)CC1 [Example 51],0.017 µM
17,"Nc1nc(N2CCC(N)(CO)CC2)cnc1Sc1ccnc(Cl)c1Cl [Example 52, (4-amino-1-(6-amino-5-((2,3-dichloropyridin-4-yl)thio)pyrazin-2-yl)piperidin-4-yl)methanol]",0.062 µM
18,Nc1nc(N2CCC(N)(CO)CC2)cnc1Sc1ccnc(N)c1Cl [Example 53],0.315 µM
19,Nc1nc(N2CCC(N)(CO)CC2)cnc1Sc1cccnc1C(F)(F)F [Example 54],0.17 µM
20,CC1(CN)CCN(c2cnc(Sc3cc(N)nc(Cl)c3Cl)c(N)n2)CC1 [Example 55],0.0177 µM
